Tests used:
[1] = molecular target: T1, GST-pRbABC/6×His-Ad5E1ACR1-3 complex (Homo sapiens, UniProt P06400); experiment: ELISA: disruption of pRb/Ad5-E1A complex; type: binding, adenovirus; details: disruption of pRb/viral oncoprotein complex; 100 nM E1A
T1 construct: made in house; host or cells: pRb: Sf9; E1A: E. coli BL21(DE3)
T1 sequence (P06400 376-928): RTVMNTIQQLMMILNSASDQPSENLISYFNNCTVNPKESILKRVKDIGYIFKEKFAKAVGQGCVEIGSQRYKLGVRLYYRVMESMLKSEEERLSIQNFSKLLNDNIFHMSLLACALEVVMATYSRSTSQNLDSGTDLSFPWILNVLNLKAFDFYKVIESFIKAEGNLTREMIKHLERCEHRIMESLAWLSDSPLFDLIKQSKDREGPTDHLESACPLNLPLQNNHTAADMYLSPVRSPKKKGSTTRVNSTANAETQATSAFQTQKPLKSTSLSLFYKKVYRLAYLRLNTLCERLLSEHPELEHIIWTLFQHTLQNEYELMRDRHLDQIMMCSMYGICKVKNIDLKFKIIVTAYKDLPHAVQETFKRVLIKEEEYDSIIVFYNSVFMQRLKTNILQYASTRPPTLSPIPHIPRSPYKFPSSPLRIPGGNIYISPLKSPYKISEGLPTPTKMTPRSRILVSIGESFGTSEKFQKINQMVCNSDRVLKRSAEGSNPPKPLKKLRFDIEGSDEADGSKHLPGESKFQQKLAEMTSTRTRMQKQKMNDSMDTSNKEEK
Experimental: (§1) A similar ELISA assay was used to assess the ability of the compounds to inhibit the ability of HPV16-E7-mediated disruption of E2F/pRb complexes. For these studies, 6×His-HPV1AE7CR2-3 and 6×His-Ad5E1ACR1-3, containing the L×C×E motif, were employed. The assay described above was modified in such a way that GST-pRbABC alone was added to HPV-E7CR2-3+ compound, HPV-E7CR2-3+DMSO, Ad5-E1ACR1-3+ compound, or Ad5-E1ACR1-3 DMSO. Mouse monoclonal anti-His antibody (Fisher) diluted 1:10,000 was used to detect how much His-E7CR2-3 remained bound to GST-pRbABC on the plate. Mouse monoclonal Ad5-E1A antibody (Abeam) diluted 1:10,000 was used to detect how much E1ACR1-3 remained bound to GST-pRbABC on the plate. All other steps remained unchanged.

[2] = molecular target: T2, GST-pRbABC/6×His-HPV1AE7CR2-3 complex (Homo sapiens, UniProt P06400); experiment: ELISA: disruption of pRb/HPV1A-E7 complex; type: binding, low risk HPV (type 1A); details: disruption of pRb/viral oncoprotein complex; 500 nM 1AE7
T2 construct: made in house; host or cells: pRb: Sf9; E7: E. coli BL21(DE3)
T2 sequence (P06400 376-928): T1 sequence (P06400 376-928)
Experimental: as §1

[3] = molecular target: T3, GST-pRbABC/E2F complex disrupted by 6×His-HPV1AE7CR2-3 (Homo sapiens, UniProt P06400); experiment: ELISA: inhibition of HPV1A-E7-mediated disruption of pRb/E2F complexes; type: binding, low risk HPV (type 1A); details: E2F remaining bound to pRb; 500 nM 1AE7
T3 construct: made in house; host or cells: pRb: Sf9; E2F1 and E7: E. coli BL21(DE3)
T3 sequence (P06400 376-928): T1 sequence (P06400 376-928)
T3 sequence (Q01094 243-437 partner limits assumed): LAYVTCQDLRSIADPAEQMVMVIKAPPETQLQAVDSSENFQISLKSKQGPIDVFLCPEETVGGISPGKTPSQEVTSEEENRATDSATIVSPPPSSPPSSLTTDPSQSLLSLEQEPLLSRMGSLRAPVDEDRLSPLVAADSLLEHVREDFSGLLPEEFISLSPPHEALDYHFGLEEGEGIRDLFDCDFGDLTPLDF
Experimental: (§2) Since HPV-E7 mediates high affinity pRb binding through the association of its L×C×E motif in CR2 to the B domain of pRb, the ability of the thiadiazolidinedione compounds to inhibit the ability of other L×C×E containing viral oncoproteins from disrupting E2F/pRb complexes was tested. The other L×C×E containing viral oncoproteins tested included HPV-E7 from a low risk HPV form (type 1A) and Adenovirus E1A proteins.
as §1

[4] = molecular target: T4, GST-pRbABC/E2F complex disrupted by 6×His-Ad5E1ACR1-3 (Homo sapiens, UniProt P06400); experiment: ELISA: inhibition of adenovirus E1A-mediated disruption of pRb/E2F complexes; type: binding; details: E2F remaining bound to pRb; 100 nM E1A
T4 construct: made in house; host or cells: pRb: Sf9; E2F1 and E1A: E. coli BL21(DE3)
T4 sequence (P06400 376-928): T1 sequence (P06400 376-928)
T4 sequence (Q01094 243-437 partner limits assumed): T3 sequence (Q01094 243-437 partner limits assumed)
Experimental: as §2, §1

[5] = molecular target: T5, pRbAB (Homo sapiens, UniProt P06400, DEL590-635); experiment: Isothermal titration calorimetry binding to pRbAB; details: for Kd: ITC, pRbAB, 22° C.
T5 construct: untagged pRbAB (372-787 with the linker from 590-635 removed); made in house
T5 sequence (P06400 with tags, fused parts or gaps DEL590-635): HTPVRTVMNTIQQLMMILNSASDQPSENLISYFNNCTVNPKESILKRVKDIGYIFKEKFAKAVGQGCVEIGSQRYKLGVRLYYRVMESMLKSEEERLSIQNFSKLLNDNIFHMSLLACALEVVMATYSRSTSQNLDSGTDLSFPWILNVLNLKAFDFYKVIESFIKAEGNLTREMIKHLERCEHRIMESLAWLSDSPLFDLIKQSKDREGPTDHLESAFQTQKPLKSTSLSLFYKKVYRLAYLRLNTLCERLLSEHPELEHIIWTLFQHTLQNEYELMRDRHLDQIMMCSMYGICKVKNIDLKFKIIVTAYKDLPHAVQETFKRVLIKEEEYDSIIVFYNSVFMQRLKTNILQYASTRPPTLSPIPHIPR
Experimental: For use in isothermal titration calorimetry studies, untagged pRbAB (372-787 with the linker from 590-635 removed) was prepared as described in Xiao et al., PNAS USA, 100:2363-2368 (2003).
This example illustrates the ability of the thiadiazolin-3,5-dione compounds to bind directly to a truncated pRb protein construct containing the A and B domains of the pRb pocket (pRbAB) using isothermal titration calorimetry (ITC).
Binding of compounds 1-9 to pRbAB were measured by ITC using a MicroCal™ VP-ITC isothermal titration calorimeter (MicroCal, Inc). Proteins were extensively dialyzed against a buffer containing Hepes (20 mM), pH=7.5, NaCl (150 mM) and Tris carboxy ethyl phosphine (0.1 mM) prior to analysis. Eight to twelve μL injections of 750-1500 μM compound were titrated into a pRb solution (50-150 μM) pre-equilibrated to 22° C. After subtraction of dilution heats, calorimetric data were analyzed with the MicroCal™ Origin® V5.0 (MicroCal Software, Northampton, Mass.).

[6] = molecular target: T6, GST-pRbABC/6×His-HPV16-E7CR2-3 complex (Homo sapiens, UniProt P06400); experiment: ELISA: disruption of pRb/HPV16-E7 complex; type: binding; details: disruption of pRb/viral oncoprotein complex; 500 nM 16E7
T6 construct: made in house; host or cells: pRb: Sf9; E7: E. coli BL21(DE3)
T6 sequence (P06400 376-928): T1 sequence (P06400 376-928)
Experimental: An ELISA assay was utilized with modifications such that the amount of 6×His-HPV16-E7CR2-3 remaining bound to the partner protein on the plate could be measured. The compounds identified in Example 2 were purchased (Lankenau Institute for Medical Research) as powders. Their purity was verified by LC/MS and their structures by NMR. IC50 values were then measured for (i) the compounds identified in Example 1, (ii) the compounds prepared according to Examples 3-5, (iii) 2-phenyl-4-methyl-1,2,4-thiadiazolidin-3,5-dione (available from Molport, Latvia), and (iv) 4-benzyl-2-methyl-1,2,4-thiadiazolidin-3,5-dione (TDZD-8; Catalog No. T8325-5MG, Sigma) using the same ELISA-based assay as described for the high-throughput screen, except that the assay was performed manually in 96-well format and so all volumes used were double those from 384-well format.
All compounds were solubilized in DMSO (50 mM) and diluted for use in the ELISA-based assay at a final DMSO concentration of less than 5%. Ten-fold dilutions of thiadiazolin-3,5-dione compound (starting at 100 μM) were added to a mixture containing GST-pRbABC and 6×His-HPV16E7CR2-3. The amount of E7 remaining was determined by adding a primary anti-His antibody. The concentrations of the compounds in the IC50 experiment spanned the range of enzyme activity from no inhibition to complete inhibition. Three independent IC50 measurements were performed for each compound and the average and standard deviation values are reported. All data was imported into the GraphPad® Software (Prism) for IC50 determination. To calculate the IC50 values, the dose-response curves were fit to one-site (Hill slope=1) sigmoidal-dose-response curves.

[7] = tested on: SiHa cells; experiment: Cell cycle and apoptosis in SiHa cells, propidium iodide flow cytometry and morphology; type: cell-based; details: 48 hours
Experimental: Since the thiadiazolin-3,5-dione compounds bind to pRb, data was generated regarding their effect in cells infected with HPV. […] DNA content was determined by propidium iodine staining and analysis by flow cytometry.
Cultured cell lines were seeded in 60 mm tissue culture dishes (Falcon) at 1×10^5 cells/well. […] Cells were then trypsinized, washed with phosphate-buffered saline (1.0 mL; PBS), and fixed in ethanol (80%) for 30 minutes on ice. Fixed cells were spun at 500 g for 5 minutes, rehydrated with PBS (1 mL), and spun again to remove any traces of ethanol. Cells were stained with propidium iodide (250 μL; PI), which was prepared by adding PI (100 μL, 2 mg/ml, Sigma) and RNase A (3.5 μL of 30 mg/ml, Sigma) into PBS (10 mL). Cells were then analyzed at the Wistar Institute Flow Cytometry Core Facility using standard equipment, reagents, and methodologies known in the art.

[8] = tested on: SiHa cells (HPV 16); experiment: MTS cytotoxicity in SiHa cells; type: cell-based; details: 48 hours
Experimental: These 120 compounds were then analyzed for cytotoxicity in cervical cancer cells either infected with HPV16 (SiHa) or negative for infection with HPV (C-33A) (Yee et al., 1985). The metabolic viability of cells was measured using a MTS assay (3-(4,5-dimethylthiazol-2-yl)-5-(3-carboxymethoxyphenyl)-2-(4-sulfophenyl)-2H-tetrazolium).
(§3) Cultured cell lines were seeded in 384-well, clear, tissue culture plates (NUNC) at 10,000 cells/well and 1,000 cells/well for C-33A and SiHa, respectively, and maintained overnight. These concentrations were determined based on each cell line's doubling time. […] Cell viability was then monitored by addition of MTS reagent (8 μL; Promega) and measurement at A490 using a Wallac Envision™ plate reader after 3 hours of incubation.
as §3, with “10,000 cells/well, 1,000 cells/well, 1,000 cells/well, 1,000 cells/well,” for “10,000 cells/well”, “and 2,000” for “and 1,000”, “for C-33A,” for “for C-33A and”, “SiHa, HeLa, TC-1, or HCT116 cells,” for “SiHa,”

[9] = 10 μM compound (staurosporine 2 μM)
[10] = SiHa, 10 μM compound (staurosporine 2 μM)

Structure (SMILES)	IC50 [1]	IC50 [2]	IC50 [3]	IC50 [4]	Kd [5]	IC50 [6]	morphology of SiHa cells [7]	effect on SiHa cells [7, 9]	% Apoptotic [7, 10]	% G0/G1 [7, 10]	% G2/M [7, 10]	% S [7, 10]	reversibility of binding to pRb ([5]; ITC repeated after overnight dialysis of pRb/compound complex)	cytotoxicity in SiHa cells [8]
COc1cccc(-n2sc(=O)n(C)c2=O)c1 [Compound 7]	2800 ± 2100 nM	4000 ± 2500 nM	3500 ± 1700 nM	3200 ± 2700 nM	815 ± 70 nM	290 nM								
Cn1c(=O)on(-c2ccc(Cl)c(Cl)c2)c1=O [2-(3,4-dimethyl-phenyl)-4-methyl-1,2,4-oxadiazolin-3,5-dione, reference compound]							maintained the elongated shape	no effect	0.9%	71.8%	16.3%	11.3%		
Cc1cccc(-n2sc(=O)n(C(C)C)c2=O)c1 [Compound 5]	3500 ± 1700 nM	5500 ± 2700 nM	5500 ± 1500 nM	1100 ± 2500 nM	210 ± 51 nM	3200 ± 1300 nM								
Cc1cc(Cl)ccc1-n1sc(=O)n(C(C)C)c1=O [Compound 4]	3800 ± 1500 nM	4700 ± 2100 nM	5500 ± 1700 nM	1300 ± 2200 nM	187 ± 22 nM	4500 ± 1500 nM		most drastically affected	15.2%			15.8%		
Cc1ccccc1-n1sc(=O)n(C)c1=O [Compound 3]	1000 ± 2100 nM	3400 ± 2000 nM	4500 ± 1700 nM	240 nM	106 ± 34 nM	500 ± 1500 nM		most drastically affected	6.5%			15.4%	reversible	
Cc1ccccc1-n1sc(=O)n(C(C)C)c1=O [Compound 1]	5000 ± 1800 nM	7900 ± 2100 nM	10600 ± 1300 nM	2800 ± 2200 nM	165 ± 52 nM									
COc1ccc(-n2sc(=O)n(C)c2=O)cc1 [Compound 6]	7700 ± 1700 nM	1300 ± 1300 nM	3300 ± 1600 nM	1700 ± 2700 nM	381 ± 31 nM	400 nM								
CN[C@@H]1C[C@H]2O[C@@](C)([C@@H]1OC)n1c3ccccc3c3c4c(c5c6ccccc6n2c5c31)C(=O)NC4 [Staurosporine, reference compound]								most drastically affected	34.3%	31.3%		13.8%		toxic
COn1c(=O)sn(-c2ccccc2C)c1=O [Compound 2]	2600 ± 1300 nM	3000 ± 2300 nM	3500 ± 1600 nM	640 nM	104 ± 25 nM	570 ± 1200 nM								

— patent US9447060B2, “Small molecule modulators of pRb inactivation” (The Wistar Institute of Anatomy and Biology, priority 2011, dated 2016)
